Measured values as given in PMC6435698, “Keggin-type polyoxotungstates as mushroom tyrosinase inhibitors - A speciation study” (Scientific Reports, 2019).
Read-outs that look alike come from different tables or passages of the source.

Legend:
[1] = target: T1, abPPO4 (mushroom tyrosinase) (Agaricus bisporus, UniProt C7FF05); experiment: dopachrome assay, inhibition of abPPO4 diphenolase activity; type: biochemical; details: for inhibitory effect on abPPO4 activity (in words): activity plots; for Inhibition type: substrate L-DOPA; for α, inhibition parameter, from Lineweaver-Burk intercepts: [b] from Lineweaver-Burk intercepts; as to Ki [mM], from Dixon plots: L-DOPA 0.4–1.5 mM; as to Ki [mM], from Lineweaver-Burk slopes: L-DOPA 0.4–1.5 mM
T1 construct: glutathione-S-transferase (GST) (N, cleaved yes); made in house; host or cells: E. coli BL21(DE3)
T1 sequence (C7FF05 1-379 limits assumed): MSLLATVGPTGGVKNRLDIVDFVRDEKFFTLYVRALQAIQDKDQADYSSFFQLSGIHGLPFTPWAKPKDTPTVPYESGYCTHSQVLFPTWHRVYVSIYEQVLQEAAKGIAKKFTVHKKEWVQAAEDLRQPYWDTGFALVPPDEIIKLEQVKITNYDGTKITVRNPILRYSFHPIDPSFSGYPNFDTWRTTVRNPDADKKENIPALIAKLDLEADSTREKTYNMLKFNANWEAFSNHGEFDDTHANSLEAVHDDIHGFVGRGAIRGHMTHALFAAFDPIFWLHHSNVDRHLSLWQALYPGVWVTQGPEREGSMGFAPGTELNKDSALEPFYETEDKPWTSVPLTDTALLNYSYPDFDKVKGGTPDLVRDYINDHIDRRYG
Experimental: The detailed methodology applied for kinetic evaluation is presented in the SI.
For the activity plots shown here, the ratios of reaction rates v ([I] = 0] and vapp ([I] = 0.2–14 mM) were determined from UV absorption measurements at 475 nm using the dopachrome assay. Each reaction setup contained a fixed amount of enzyme (1 µg abPPO4) in 1 mL in a plastic cuvette and the reaction buffer was 50 mM Na-citrate pH 6.8. POT stock solutions were prepared in 20 mM concentration in reaction buffer and adjusted for pH 6.8 with NaOH, if necessary. The reaction rates were extracted from the obtained absorption curves as the slope of linear fits of the steepest curve sections close to the start of the reaction over a time-range of 30 s and were determined in triplicates. The relative enzymatic activity dependent on the inhibitor concentration was fitted to a suitable hyperbolic expression (see SI for details). […] The dopachrome assay was performed exactly as described in section 3.1.1. This time, the observed reaction velocities vapp (in µmol/min) were calculated from the extracted reaction rates (in 1/s) using the extinction coefficient of dopachrome ε = 3700 M^−1 cm^−1 [62]. The so obtained data was plotted according to Lineweaver-Burk, and the slopes and ordinate intercepts of these graphs were used to extract inhibition parameters.
(The kinetic models with according mathematical expressions applied in this study are based on Copeland’s guide for enzyme kinetics[28].)
The classical Michaelis-Menten equation[28] relates the velocity v of an enzymatic reaction to the applied substrate concentration [S]:
In this equation, the Michaelis constant KM represents the substrate concentration effecting the half-maximum reaction rate vmax.
For the reported inhibition studies, we chose an expanded version of this equation (1) which accounts for all possible inhibition mechanisms and combinations thereof[28]. In general, both […]
ݒ௠௔௫,௔௣௣ = ௩೘ೌೣଵା [಺] (2)
Herein, [I] refers to the inhibitor concentration, Ki is the inhibition constant measuring the […]
The three ideal inhibition types are reflected by three limiting conditions for α:
(A) 0 < α <<1: uncompetitive inhibition
(B) α = 1: non-competitive inhibition
(C) α >> 1: competitive inhibition
Therefore, values of α < 1 often correspond to mixed-type inhibition with contributions from uncompetitive and non-competitive inhibition modes.
Insertion of expressions (2) and (3) in equation (1) leads to the final mixed-type inhibition […]
The relative enzymatic activity upon inhibition can be expressed as the ratio of the observed reaction velocity v app to the non - inhibited reaction performance v through dividing equation […]
This corresponds to a normalization of the reaction rates with respect to the non - inhibited rate. As w e were interested in the dependence of the reaction velocity on the inhibitor concentration , the substrate concentration was fixed to 1 mM L - DOPA for all activity plots.
This led to a further simplification of equation ( 1 ) : […]
Equation (6) was used as the final curve fit expression for kinetic evaluation of those POM […]
K M was set to 26.1 mM as reported for ab PPO4 by
3.2 Determination of inhibition type
3.2. 1 Kinetic evaluation using Lineweaver - Burk plots […]
linear Lineweaver - Burk [ 29 ] extrapolations. The double - reciprocal plots of 1/ v app against 1/[S] yielded straight li nes that were fitted accordingly to the corresponding ly rearranged form of […]
For simplicity, the terms for the slope m and the ordinate shift t are co mbine d in constants in […]

[2] = speciation / hydrolytic stability of POTs at pH 6.8 by 183W NMR; type: physicochemical; details: 183W NMR (and 31P, 27Al NMR), ca. 20 mM in 50 mM Na-citrate pH 6.8
Text: ^183W NMR spectroscopy is the most widely applied and reliable technique for the structural characterization of POTs in solution as well as to monitor the progress of reaction. Hundreds of POM ^183W NMR spectra have been reported since the first ^183W NMR spectrum for [SiW11]^8− observed by Acerete et al. in[47]. The here-presented ^183W NMR analysis yielded a single signal for all intact [XW12]^n− structures (Figs 4A,D and S11–S14), reflecting the perfect tetrahedral symmetry of the Keggin α-isomer and clearly confirming the isomeric purity of the prepared POTs.
^183W NMR samples for all the POM compounds were prepared in high concentrations similar to the stock solutions used for kinetic experiments (usually about 20 mM) in 50 mM Na-citrate pH 6.8 if not stated otherwise. ^183W NMR spectra were recorded with a Bruker FT-NMR spectrometer Avance Neo 500 MHz in 10 mm tubes for a total experiment time of ca. 60 hours, using standard pulse programs at 20.836 MHz and a 63° flip angle with 1 s of relaxation delay; the temperature was kept at 25 °C. Chemical shifts were measured relative to external 1 M Na2WO4. For [PW12]^3−, [PW11]^7− and […], additional ^31P NMR spectra were taken, structures of [AlW12]^5−, [AlW11]^9− and [BeW12]^6− were confirmed by ^27Al NMR or ^9Be NMR spectroscopy, respectively. ^27Al, ^9Be and ^31P NMR spectra were recorded at 130.368, 70.273 and 202.53 MHz, respectively. Chemical shifts are given relative to Al(NO3)3, BeSO4 or 85% H3PO4.
In the ^183W NMR spectrum of [PW12]^3− at pH 6.8 (see Fig. 4E), the six most intense peaks can be assigned to six different symmetry-equivalent positions in [PW11]^7−[47],[49]. The less intense signals in the ^183W NMR spectrum can be attributed to other [PW12]^3− hydrolysis products[51] that have been identified in the ^31P NMR spectrum (Fig. S7B). […] Based on both spectra, it can be concluded that [PW11]^7− prevails in aqueous solution at pH 6.8. […] Assignment is complicated by the special pseudo-paramagnetic character of this cluster (see ^183W NMR analysis in Fig. S15, SI section 2.2.2.4).
In order to identify the tungstate species responsible for the inhibitory effect observed with the orthotungstate solution [WO4]^2−, ^183W NMR was performed in reaction buffer pH 6.8, which had to be readjusted by a few drops of 5 M HCl to compensate for the marked basicity of [WO4]^2−. […] The chemical shifts are in agreement with literature data[56]. […] The ^183W NMR spectra for the POT clusters with higher negative charges (see Figs S11–S14) show only one single signal, thereby confirming full structural integrity of the corresponding Keggin anions at pH 6.8. The lacunary cluster [AlW11]^9− evoked a rise in pH up to 8.5 upon dissolution in reaction buffer (pH 6.8) to reach a final concentration of 20 mM. […] In the [BeW12]^6− spectrum (Fig. S14), three additional signals at −147.6, −155.3 and −168.6 ppm can be seen, which were assigned to the β-Keggin isomer. The C3v symmetry of this isomer results in three shifts with intensity ratio 1:2:1, as previously observed for other β-isomers of Keggin structure. The β-isomer is commonly formed during any synthesis of Keggin clusters, but rearranged to the α-form during prolonged thermal reaction. Thus, the occurrence of the β-form in the present preparation can be ascribed to the reduced reaction time applied for the hydrothermal synthesis. […] The ^31P (cf. Fig. S8) and ^183W NMR (Fig. S15) spectra of [PW11Ni]^5− have a special character originating from the peculiar electronic configuration of Ni^2+ and were in general accordance with reference data[61]. In the presented ^183W NMR spectrum, signals from those W atoms in direct neighbourhood to the Ni^2+ center cannot be observed, which complicates unambiguous assignment to the desired substituted POT structure. However, the obtained results can be explained in the light of electronic effects. […]

mushroom tyrosinase = details: substrate L-DOPA; cited from earlier work
[3] = tested on: Bacillus megaterium tyrosinase; parameters: method as in PMID 27725765; details: substrate L-DOPA; cited from earlier work
[4] = expected from net charge; cited from earlier work
[5] = [a] from activity plot, 1 mM L-DOPA, 50 mM Na-citrate pH 6.8, 0–14 mM POT
[6] = [a] from activity plot, 1 mM L-DOPA, 50 mM Na-citrate pH 6.8, 0–14 mM POT, read-out: Ki [mM], from activity plot
[7] = [a] from activity plot, 1 mM L-DOPA, pH 6.8
[8] = [b] from Lineweaver-Burk slopes, L-DOPA 0.4–[…], pH 6.8, read-out: Ki [mM], from Lineweaver-Burk slopes
[9] = [c] from Dixon plots, average intersection, L-DOPA 0.4–[…], pH 6.8, read-out: Ki [mM], from Dixon plots

Compound	Ki [mM], from activity plot [1, 5]	inhibitory effect on abPPO4 activity (in words) ([1]; 1 mM L-DOPA, pH 6.8)	Inhibition type ([1]; pH 6.8)	Ki [1, 6] [mM]	α, inhibition parameter, from activity plot [1, 7]	α, inhibition parameter, from Lineweaver-Burk intercepts ([1]; pH 6.8)	structural integrity / hydrolysis at pH 6.8 [2]	also measured
O=[N+]([O-])[O-].O=[N+]([O-])[O-].[Ni+2] [Ni^2+, Ni(NO3)2, reference compound]	No inhibition	no inhibition effect	No inhibition					
[Na+].[Na+].[O]=[W](=[O])([O-])[O-] [[WO4]^2−, Na2WO4, reference compound]			Mixed-type	20	0.14	0.03	no detectable residual free orthotungstate	Ki [1, 8]: 19 mM; Ki [1, 9]: 24.8 mM
O=c1cc(CO)occ1O [kojic acid]								inhibition mode (mushroom tyrosinase): competitive; inhibition mode [3]: mixed-type
K5[BW12O40] [[BW12]^5−]	No inhibition		No inhibition				retain full structural integrity	
K5[PW11O39{Ni(H2O)}] [[PW11Ni]^5−]		pronounced inhibition	Mixed-type	9.7	0.12	0.20		Ki [1, 8]: 14.3 mM; Ki [1, 9]: 15 mM
K7[PW11O39] [[PW11]^7−]		inhibitory effect of intermediate capacity	Mixed-type	12	0.12	0.17		Ki [1, 8]: 9.9 mM; Ki [1, 9]: 9.9 mM
Na5[AlW12O40] [[AlW12]^5−]	No inhibition		No inhibition				retain full structural integrity	
Na6[BeW12O40] [[BeW12]^6−]	No inhibition		No inhibition				retain full structural integrity	stability in aqueous buffers up to pH [4]: ≤ 9 pH
Na6[H2W12O40] [[H2W12]^6−]	No inhibition		No inhibition				retain full structural integrity	
Na9[AlW11O39] [[AlW11]^9−]		weak inhibitory capacity	Mixed-type		0.12	0.31	not stable	
[AlW11O39{Al(H2O)}]^6−		weak inhibition effects		54.1				

Further lines, with some results ahead:

Ki [mM], from activity plot [1, 5]	inhibitory effect on abPPO4 activity (in words) ([1]; 1 mM L-DOPA, pH 6.8)	Inhibition type ([1]; pH 6.8)	Ki [1, 6] [mM]	α, inhibition parameter, from activity plot [1, 7]	α, inhibition parameter, from Lineweaver-Burk intercepts ([1]; pH 6.8)	structural integrity / hydrolysis at pH 6.8 [2]	Compound	also measured
	measurable inhibition effects						H[W7O24]^5− [heptatungstate]	
	most potent inhibitory effect	Mixed-type	4.7	0.11	0.32	partial hydrolysis	K4[SiW12O40] [[SiW12]^4−]	Ki [1, 8]: 3.8 mM; Ki [1, 9]: 5.6 mM
No inhibition	no enzymatic inhibition	No inhibition					K8[SiW11O39] [[SiW11]^8−]	inhibitory effect on abPPO4 activity (in words) ([1]; 1 mM L-DOPA, pH 6.8, listed as Hx[SiW11O39]^(8−x)−): ineffective
	markedly lower inhibition capacity	Mixed-type		0.13	0.20	full hydrolysis	Na3[PW12O40] [[PW12]^3−]	
